Results reported in US12448369B2 (Edgewise Therapeutics, Inc., priority 2023, dated 2025).

Tests used:
[1] = molecular target: T1, Porcine ventricle myofibrils (ventricular myosin ATPase) (Sus scrofa, UniProt P79293); test: Myofibril ATPase assay, porcine ventricle myofibrils; format: biochemical, porcine (Yucatan minipigs); details: porcine ventricle myofibrils
T1 construct: Myofibrils from porcine cardiac muscle was isolated from the left ventricle of Yucatan minipigs; tissue Exemplar Genetics; host or cells: left ventricle of Yucatan minipigs, myofibrils prepared in house
T1 sequence (P79293 whole entry): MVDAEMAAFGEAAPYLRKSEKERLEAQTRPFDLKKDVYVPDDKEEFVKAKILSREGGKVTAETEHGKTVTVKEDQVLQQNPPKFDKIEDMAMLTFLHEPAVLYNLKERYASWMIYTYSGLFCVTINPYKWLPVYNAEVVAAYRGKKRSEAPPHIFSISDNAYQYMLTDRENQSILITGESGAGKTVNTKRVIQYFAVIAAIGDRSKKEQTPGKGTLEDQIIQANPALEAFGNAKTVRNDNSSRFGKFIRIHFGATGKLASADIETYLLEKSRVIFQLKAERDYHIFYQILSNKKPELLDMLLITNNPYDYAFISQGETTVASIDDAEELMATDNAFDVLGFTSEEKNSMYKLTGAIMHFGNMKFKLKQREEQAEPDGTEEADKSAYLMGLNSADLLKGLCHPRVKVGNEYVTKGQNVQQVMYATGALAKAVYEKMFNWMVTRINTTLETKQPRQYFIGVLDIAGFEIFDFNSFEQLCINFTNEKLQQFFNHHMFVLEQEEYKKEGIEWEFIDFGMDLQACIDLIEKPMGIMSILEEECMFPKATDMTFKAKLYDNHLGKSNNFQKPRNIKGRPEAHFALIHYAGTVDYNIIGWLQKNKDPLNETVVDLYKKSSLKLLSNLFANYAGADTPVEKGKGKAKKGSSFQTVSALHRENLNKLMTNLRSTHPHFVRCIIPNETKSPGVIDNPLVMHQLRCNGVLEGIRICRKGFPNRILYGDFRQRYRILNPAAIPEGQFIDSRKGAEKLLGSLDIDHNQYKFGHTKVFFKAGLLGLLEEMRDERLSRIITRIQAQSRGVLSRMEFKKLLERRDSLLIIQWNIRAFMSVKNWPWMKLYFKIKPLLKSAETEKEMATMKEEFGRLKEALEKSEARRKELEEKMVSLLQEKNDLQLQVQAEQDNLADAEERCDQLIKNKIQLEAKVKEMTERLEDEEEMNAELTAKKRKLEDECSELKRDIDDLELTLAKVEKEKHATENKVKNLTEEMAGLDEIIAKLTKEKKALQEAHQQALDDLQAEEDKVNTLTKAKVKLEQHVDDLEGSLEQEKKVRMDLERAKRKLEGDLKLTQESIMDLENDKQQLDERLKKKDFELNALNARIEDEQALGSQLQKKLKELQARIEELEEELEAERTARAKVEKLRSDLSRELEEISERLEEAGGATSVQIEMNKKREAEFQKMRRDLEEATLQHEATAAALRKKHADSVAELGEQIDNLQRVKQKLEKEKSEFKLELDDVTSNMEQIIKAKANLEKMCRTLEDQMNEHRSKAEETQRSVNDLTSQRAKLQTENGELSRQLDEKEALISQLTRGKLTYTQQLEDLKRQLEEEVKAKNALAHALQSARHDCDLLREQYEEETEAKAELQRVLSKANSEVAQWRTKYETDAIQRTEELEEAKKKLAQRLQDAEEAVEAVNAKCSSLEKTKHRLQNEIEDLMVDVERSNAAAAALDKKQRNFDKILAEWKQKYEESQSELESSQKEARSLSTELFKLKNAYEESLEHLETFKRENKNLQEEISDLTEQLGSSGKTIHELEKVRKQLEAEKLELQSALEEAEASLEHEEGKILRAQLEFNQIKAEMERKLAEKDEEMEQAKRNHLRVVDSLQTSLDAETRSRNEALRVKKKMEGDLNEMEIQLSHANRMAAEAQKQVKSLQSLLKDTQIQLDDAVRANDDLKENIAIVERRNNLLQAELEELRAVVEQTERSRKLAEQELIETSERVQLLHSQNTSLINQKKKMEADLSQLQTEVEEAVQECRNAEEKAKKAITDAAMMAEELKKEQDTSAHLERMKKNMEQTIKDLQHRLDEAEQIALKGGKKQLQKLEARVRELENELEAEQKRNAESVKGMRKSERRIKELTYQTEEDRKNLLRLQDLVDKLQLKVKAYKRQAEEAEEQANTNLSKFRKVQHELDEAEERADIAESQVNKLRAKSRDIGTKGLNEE
How it was run: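 In a coupled enzyme format, ADP from myofibril ATPase drives NADH oxidation, monitored kinetically at 340 nm for 75 min using minipig ventricle myofibrils. Effective concentrations giving 25% loss or gain of activity relative to vehicle were calculated from 4-parameter fits.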

[2] = system: Porcine atria myofibrils (atrial myosin ATPase); test: Myofibril ATPase assay, porcine atria myofibrils; format: biochemical; details: porcine atria myofibrils
How it was run: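 Porcine atrial myofibrils were tested in a PK/LDH-coupled system where ADP from myosin ATPase drives NADH oxidation. Absorbance at 340 nm was read every 1.5-2 min for 75 min and slopes were normalized to vehicle wells. A 4-parameter logistic fit gave Y75 (25% inhibition) or Y125 (activation) concentrations.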

[3] = system: Rabbit Psoas myofibrils (skeletal myosin ATPase); test: Myofibril ATPase assay, rabbit psoas (skeletal) myofibrils; format: biochemical; details: rabbit psoas myofibrils
How it was run: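 ATPase activity of Triton-washed myofibrils was measured by PK/LDH coupling, following NADH loss at 340 nm every 1.5–2 min for 75 min in PIPES/Ca/EGTA buffer at pH 7.0. Slopes, normalized to vehicle (100%), were fitted to a 4-parameter logistic model. Values are Y75 (25% inhibition) or Y125 (activators).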

[4] = Y75 value (75% activity relative to no compound)
[5] = ‡ Y125 value, not a Y75 value (125% activity relative to no compound)

SMILES | Ventricular EC25 ([1]; Y75 value (no ‡ mark)) [µM] | Atrial EC25 ([2]; Y75 value (no ‡ mark)) [µM] | Skeletal EC25 ([3]; Y75 value (no ‡ mark)) [µM] | Ventricular EC25 ([1]; Y75 value) [µM] | Atrial EC25 [2, 4] [µM] | Skeletal EC25 ([3]; Y75 value) [µM] | also measured
Cc1nnccc1[C@@H](C)NC(=O)Cc1c(C)c2cc(F)ccc2[nH]c1=O [compound 1090] | 100.00 | 5.79 | 100.00 | – | – | – | –
C[C@H](NC(=O)Cc1c(C(F)(F)F)c2c(Cl)nccc2[nH]c1=O)c1ccc(F)cc1F [compound 428] | – | – | – | 1.94 | 1.35 | 0.09 | –
Cc1ccc([C@H](C)NC(=O)Cc2c(C)c3c(C)nccc3[nH]c2=O)cc1 (single isomer, unassigned) [compound 306] | – | – | – | 100.00 | 11.75 | 5.05 | –
Cc1c(CC(=O)N[C@@H](C)c2ccc(F)cc2F)c(=O)[nH]c2ccnc(NCC(C)C)c12 [compound 277] | – | – | – | 84.29 | 100.00 | 82.10 | –
Cc1c(CC(=O)N[C@H](CO)c2ncc(F)cc2F)c(=O)[nH]c2ccnc(C(F)(F)F)c12 [compound 263] | – | – | – | 100.00 | 100.00 | 100.00 | –
Cc1nccc2[nH]c(=O)c(CC(=O)N[C@@H](C)c3ncc(F)cc3F)c(C)c12 (single isomer, unassigned) [compound 379] | – | – | – | 5.81 | 2.36 | 0.36 | –
Cc1c(CC(=O)N[C@@H](CO)c2ncc(F)cc2F)c(=O)[nH]c2ccnc(C(F)(F)F)c12 [compound 264] | – | – | – | 2.73 | 0.29 | 0.57 | –
Cc1c(C2(C(=O)N[C@@H](C)c3ncc(C#N)cc3F)CC2)c(=O)[nH]c2cccc(C#N)c12 (single isomer, unassigned) [compound 2542] | 0.40 | 0.24 | 0.32 | – | – | – | –
Cc1c([C@@H](Cc2ccccc2)C(=O)N[C@@H](C)c2ccc(F)cc2F)c(=O)[nH]c2ccnc(F)c12 (single isomer, unassigned) [compound 358] | – | – | – | 54.71 | 23.89 | 100.00 | –
Cc1c([C@H](C)C(=O)N[C@@H](C)c2ccc(F)cc2F)c(=O)[nH]c2ccnc(Cl)c12 (single isomer, unassigned) [compound 366] | – | – | – | 1.48 | 0.14 | 0.04 | –
Cc1nccc2[nH]c(=O)c(CC(=O)N[C@@H](C)c3ccc(O)nc3)c(C)c12 (single isomer, unassigned) [compound 296] | – | – | – | 100.00 | 88.12 | 100.00 | –
COc1ccc2[nH]c(=O)c(CC(=O)N[C@@H](C)c3ccc(F)cc3F)cc2c1C [compound 92] | 100.00 | 29.94 | 2.83 | – | – | – | –
Cc1c(C2(C(=O)N[C@H](C)c3ncc(C#N)cc3F)CC2)c(=O)[nH]c2ccc(F)cc12 (single isomer, unassigned) [compound 2596] | 0.55 | 0.11 | 0.16 | – | – | – | –
Cc1c(CC(=O)N[C@@H](C)c2ccc(F)cc2F)c(=O)[nH]c2ccc(F)c(C(F)(F)F)c12 [compound 96] | 0.13 | 0.07 | 0.01 | – | – | – | –
Cc1nccc2[nH]c(=O)c(CC(=O)N[C@@H](CO)c3ccc(C#N)cc3F)c(C)c12 (single isomer, unassigned) [compound 243] | – | – | – | 2.20 | 0.56 | 0.17 | –
Cc1c(CC(=O)N[C@H](C)c2ccc(C#N)cn2)c(=O)[nH]c2ccncc12 [compound 466] | – | – | – | 100.00 | 100.00 | 100.00 | –
C[C@H](NC(=O)[C@@H](C)c1cc2c(C#N)nccc2[nH]c1=O)c1ccc(F)cc1F (single isomer, unassigned) [compound 361] | – | – | – | 3.68 | 1.29 | 0.03 | –
Cc1nccc2[nH]c(=O)c(CC(=O)N[C@H]3COc4cc(C#N)cc(F)c43)c(C)c12 (single isomer, unassigned) [compound 178] | – | – | – | 20.24 | 4.55 | 1.84 | –
Cc1nccc2[nH]c(=O)c(CC(=O)N[C@@H](C)c3ncc(C#N)cn3)c(C)c12 [compound 483] | – | – | – | 16.67 | 4.03 | 7.32 | –
Cc1c(C(F)(F)C(=O)N[C@@H](C)c2cnc(C#N)cn2)c(=O)[nH]c2ccc(F)cc12 (single isomer, unassigned) [compound 4828] | 1.13 | 0.30 | 0.24 | – | – | – | –
C[C@H](NC(=O)C(F)(F)c1cc2cc(F)ccc2[nH]c1=O)c1cccc(C#N)n1 (single isomer, unassigned) [compound 2582] | – | – | – | – | – | – | Ventricular EC25 [1, 5]: 68.39‡ μM; Atrial EC25 [2, 5]: 100.00‡ μM; Skeletal EC25 [3, 5]: 75.10‡ μM
C[C@@H](NC(=O)Cc1cc2cc(F)c(F)cc2[nH]c1=O)c1ccc(C#N)cn1 [compound 1114] | 8.08 | 8.40 | 22.82 | – | – | – | –
Cc1c(CC(=O)N[C@@H](C)c2ccc(F)cc2F)c(=O)[nH]c2ccc(O)c(C#N)c12 [compound 84] | 55.56 | 2.52 | 7.24 | – | – | – | –
Cc1c(CC(=O)N[C@@H](C)c2ccc(C#N)cn2)c(=O)[nH]c2cccc(F)c12 [compound 54] | 1.53 | 0.11 | 0.04 | – | – | – | –
C[C@@H](NC(=O)Cc1c(C2CC2)c2c(F)c(F)ccc2[nH]c1=O)c1ccc(C#N)cn1 [compound 25] | 100.00 | 100.00 | 1.68 | – | – | – | –
Cc1c(CC(=O)N[C@H](C)c2ncc(C#N)cc2F)c(=O)[nH]c2cccc(C#N)c12 [compound 1080] | 0.36 | 0.21 | 0.12 | – | – | – | –
Cc1nccc2[nH]c(=O)c(C(F)(F)C(=O)N[C@@H](C)c3ccc(F)cc3F)c(C)c12 [compound 405] | – | – | – | 1.12 | 0.15 | 0.04 | –
